Patent publication US20220105109A1, “METHODS OF TREATING COVID-19 AND COMPOSITIONS THEREFOR” (priority 2020, published 2022)
Where two headings read alike, the source gives them in different places.

Experiments:
COVID-19 [1] = assay: Anecdotal case of a subject with COVID-19 taking ASA; assay type: in vivo; conditions: one person; at least 0.4 g ASA orally on at least a few days of the approximately 14-day illness; also 80 mg famotidine daily
[2] = cited from earlier work; for suppressing ACE-inhibitor induced cough: patients
COVID-19 [3] = conditions: COVID-19 patients who had been taking famotidine; cited from earlier work

SMILES	common respiratory symptoms and effects of COVID-19 (shortness of breath, cough) (COVID-19 [1])	cough severity and cough frequency ([2]; 500 mg ASA daily)	patients with cough completely abolished ([2]; 500 mg ASA daily)	patients with cough significantly reduced ([2]; 500 mg ASA daily)	suppressing ACE-inhibitor induced cough ([2]; intermediate dose, 500 mg ASA daily)	suppressing ACE-inhibitor induced cough ([2]; low dose, 100 mg ASA daily)	clinical outcomes (intubations, deaths, symptoms) vs patients not taking famotidine (COVID-19 [3])
CC(=O)Oc1ccccc1C(=O)O [ASA, acetylsalicylic acid]	none of the common respiratory symptoms and effects of COVID-19	Significant reductions	five of 14	13 of 14	extremely effective	ineffective	
NC(N)=Nc1nc(CSCCC(N)=NS(N)(=O)=O)cs1 [famotidine]							better outcomes
